From patent US20260325473A1, “N-Beta-Hydroxybutyryl-Amino Acids and Related Compositions and Methods” (The Board of Trustees of the Leland Stanford Junior …, priority 2023, published 2026)

Tested on: brain lysate proteins
Assay: Competition of X-Phe photoprobe-labeled brain proteins, quantitative shotgun proteomics
Type: binding, mouse
Settings: 100 μM photoprobe; 50-fold excess competitor
Description: Shotgun proteomics of X-Phe photoprobe-labeled proteins. Brains from wild type C57BL/6J mice were harvested and homogenized using a bead blaster in PBS. Brain homogenate was centrifuged (15,000 rpm, 10 min) to yield the cytosolic supernatant and membrane pellet fractions. The cytosolic fraction was transferred to a new eppie and centrifuged again (15,000 rpm, 10 min). This process was repeated 4 times until no pellet was present after centrifugation. The membrane pellet was washed with 1 ml PBS and centrifuged (15,000 rpm, 10 min); this step was also repeated 4 times to remove any cytosolic protein contamination. After the centrifugation steps, the membrane pellet was re-suspended in PBS and sonicated. For competition experiments, brain lysate was normalized to 2 mg/ml in PBS and incubated with competitors at the indicated concentrations at room temperature for 30 minutes. 100 μM of the photoprobe was added and the reactions incubated on ice for 10 minutes protected from light. Reactions were then put under UV for 1 min on a UV Stratalinker. A biotin click reaction was performed by adding the following reagents to the indicated final concentrations: […], 1 mM CuSO4, 1 mM TCEP (freshly prepared), 30 μM Biotin-N3. Reactions were allowed to proceed for 1 hour at room temp, protected from light, and while rotating. The following prep was adapted from Niphakis et al. 2015. To each reaction, the following solvents were added in order, 4 ml cold methanol, 1 ml cold chloroform, 2 ml cold PBS. The mixture was vortexed well and centrifuged (4,600×g, 15 min, 4° C.). After centrifugation the organic and aqueous layers were removed without disruption of the protein disc. The protein disc was washed with a cold 1:1 mixture of methanol:chloroform 3 times. After the final wash, the protein disc was re-suspended in a 4:1 mixture of methanol:chloroform and sonicated. The insoluble protein was pelleted by centrifugation (4,600×g, 15 min, 4 C) and the pellet re-suspended in freshly prepared 500 μl of 6 M urea in PBS. 20 μl of 10% (w/v) SDS was added to the solution. The solution was then warmed in a 37 C water bath for 10 min to help dissolve poorly soluble protein. A streptavidin pulldown was the performed on the protein mixture. 250 μl of streptavidin beads were washed 3 times with 1 ml PBS. Protein samples were diluted with 5.5 ml of 0.25% SDS in PBS and incubated with streptavidin beads for 1.5 hr at room temperature. Following incubation, beads were washed 5 times each with 0.25% SDS in PBS, then PBS, then lastly with ultra-pure water Steptavidin beads were suspended in 150 μL resuspension buffer (1 M urea, 50 mM Tris-HCl, pH 8). Proteins were digested with 3 μg of trypsin for 4 hours. Digested peptides were reduced with 5 mM TCEP for 10 minutes. Cys residues were alkylated using 15 mM iodoacetimide (IAA) for 20 minutes. Finally, excess IAA was quenched with 10 mM DTT. Acidified digested peptides were desalted over C18 StageTips [PMID: 12585499]. Peptides were then eluted with 80% acetonitrile, 0.1% TFA and dried in a speedvac. Dried samples were reconstituted with 200 mM EPPS buffer, pH 8.0, and labelled with TMT reagents (Thermo Fisher Scientific). Following incubation at room temperature for 2 h, the reactions were quenched with hydroxylamine to a final concentration of 0.5% (v/v). […]

CC(O)CC(=O)N[C@@H](Cc1ccccc1)C(=O)O (some centres unmarked) [BHB-Phe, N-betahydroxybutyryl-phenylalanine]
competition of X-Phe photoprobe-labeled proteins: > 80%
number of brain proteins crosslinked by X-Phe photoprobe and >80% competed by Keto-Phe: 32 proteins
